In brackets after ≈: the same amount, converted by molar mass. Entries after “also recorded” stand apart in the source; their conditions may differ.
Test system: M. tuberculosis H37Rv
Assay: not given
Conditions: cited from earlier work
In the case of `COc1ccc(CCNCC(O)Cn2c3ccccc3c3ccccc32)cc1OC` (stereo not shown) [AF-399/41048884], the IC50 is given as 10600 nM.

Biological target: M. tuberculosis DNA gyrase holoenzyme (GyrB ATPase activity) (Mycobacterium tuberculosis, UniProt P9WG45)
Sequence (P9WG45 whole entry, looked up): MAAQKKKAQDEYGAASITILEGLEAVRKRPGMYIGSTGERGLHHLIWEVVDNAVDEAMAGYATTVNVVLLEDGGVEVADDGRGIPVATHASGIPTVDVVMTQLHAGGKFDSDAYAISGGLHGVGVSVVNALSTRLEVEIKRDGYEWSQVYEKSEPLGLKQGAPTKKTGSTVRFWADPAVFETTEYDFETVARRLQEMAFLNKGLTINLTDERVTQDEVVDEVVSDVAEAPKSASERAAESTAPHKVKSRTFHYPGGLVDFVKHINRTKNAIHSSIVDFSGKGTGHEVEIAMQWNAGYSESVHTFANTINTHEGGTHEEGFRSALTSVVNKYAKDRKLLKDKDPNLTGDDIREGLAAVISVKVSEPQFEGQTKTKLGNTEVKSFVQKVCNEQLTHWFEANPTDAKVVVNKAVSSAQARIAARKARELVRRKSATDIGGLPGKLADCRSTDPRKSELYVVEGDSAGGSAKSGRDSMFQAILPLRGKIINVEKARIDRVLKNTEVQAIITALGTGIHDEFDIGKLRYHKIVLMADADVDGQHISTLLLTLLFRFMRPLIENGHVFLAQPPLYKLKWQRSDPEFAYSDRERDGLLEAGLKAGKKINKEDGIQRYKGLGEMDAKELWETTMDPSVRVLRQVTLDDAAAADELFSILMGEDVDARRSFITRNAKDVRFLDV
Assay: biochemical
Conditions: not given
With `CCn1c2ccccc2c2cc(CNCCNCC(C)O)ccc21` (stereo not shown) [Compound 8] the “ATPase inhibition, fold more effective than carbazole derivative 1” value was “approximately 3 fold”, the “ATPase inhibition, fold more effective than carbazole derivative 2” value was about 5 fold and the “ATPase inhibition, fold more effective than carbazole derivative 3” value was about 15 fold. For the same molecule, the “IC50 fold better than novobiocin” value was 5 fold. In the case of `OCCNCC(O)Cn1c(-c2ccccc2)c(-c2ccccc2)c2ccc3ccccc3c21` (stereo not shown) [Compound 11], the “IC50 fold better than novobiocin” value is reported as 2 fold. For `Cc1ccc2c(c1)c(-c1ccccc1)c(-c1ccccc1)n2CC(O)CNC(CO)(CO)CO` (stereo not shown) [Compound 14], the “IC50 fold better than novobiocin” value was 16 fold.

Same assay, conditions: triplicate, at least 11 inhibitor concentrations
For `OC(CN1CCOCC1)Cn1c(-c2ccccc2)c(-c2ccccc2)c2ccc3ccccc3c21` (stereo not shown) [Compound 9], the “IC50 for inhibition of M. tuberculosis DNA gyrase ATPase activity” value (shortened to “IC50 for inhibition”) was “inactive; also recorded: absence of observable ATPase inhibition”. For `OC(CNCc1ccco1)Cn1c(-c2ccccc2)c(-c2ccccc2)c2ccc3ccccc3c21` (stereo not shown) [Compound 10], the “IC50 for inhibition” value was “inactive; also recorded: absence of observable ATPase inhibition”. With `Cc1cc(C)c2c(c1)c(-c1ccccc1)c(-c1ccccc1)n2CC(O)CN1CCOCC1` (stereo not shown) [Compound 12] the “IC50 for inhibition” value was “inactive; also recorded: absence of observable ATPase inhibition”. For `Cc1ccc2c(c1)c(-c1ccccc1)c(-c1ccccc1)n2CC(O)CN1CCOCC1` (stereo not shown) [Compound 13], the “IC50 for inhibition” value was “inactive; also recorded: absence of observable ATPase inhibition”.

Same assay, conditions: triplicate, at least 11 inhibitor concentrations; read-out: IC50 for inhibition of M. tuberculosis DNA gyrase ATPase activity
In the case of `OC(CNCCC1C=Nc2ccccc21)Cn1c2ccccc2c2ccccc21` (stereo not shown) [Compound 1], the IC50 is reported as 730 nM. `OC(CNCCOc1ccccc1)Cn1c2ccccc2c2ccccc21` (stereo not shown) [Compound 2] gave an IC50 of 1340 nM. `OC(CNCc1ccccc1)Cn1c2ccccc2c2ccccc21` (stereo not shown) [Compound 3] gave an IC50 of 3820 nM. With `CCn1c2ccccc2c2cc(CNCCNCC(C)O)ccc21` (stereo not shown) [Compound 8] the IC50 was 260 nM. `OCCNCC(O)Cn1c(-c2ccccc2)c(-c2ccccc2)c2ccc3ccccc3c21` (stereo not shown) [Compound 11] gave an IC50 of 560 nM. `Cc1ccc2c(c1)c(-c1ccccc1)c(-c1ccccc1)n2CC(O)CNC(CO)(CO)CO` (stereo not shown) [Compound 14] showed an IC50 of 80 nM. Molecule `Cc1ccc2c(c1)c(-c1ccccc1)c(-c1ccccc1)n2CC(O)CN(CCO)CCO` (stereo not shown) [G24, reference compound] has an IC50 of 2690 nM.

Test system: M. tuberculosis H37Ra
Assay: not given
Conditions: previous virtual screening work; cited from earlier work
In the case of `Cc1ccc2c(c1)c(-c1ccccc1)c(-c1ccccc1)n2CC(O)CN(CCO)CCO` (stereo not shown) [G24, reference compound], the “MIC against M. tuberculosis (previous work)” value is listed as 12.5 µg/mL (≈ 28.1 µM). In the case of `CO[C@@H]1[C@@H](OC(N)=O)[C@@H](O)[C@H](Oc2ccc3c(O)c(NC(=O)c4ccc(O)c(CC=C(C)C)c4)c(=O)oc3c2C)OC1(C)C` [Novobiocin, reference compound], the “MIC against M. tuberculosis (previous work)” value is listed as “exceeding 100 μg/mL”.

Test system: M. tuberculosis
Assay: not given
Conditions: cited from earlier work
In the case of `OC(CN1CCN(c2ccccn2)CC1)Cn1c2ccccc2c2ccccc21` (stereo not shown) [AG-690/11353646], the IC50 is given as 36100 nM.

Test system: M. tuberculosis H37Ra
Assay: microbe, parasite or virus in culture
Assay type: cell-based, Mycobacterium tuberculosis
Conditions: not given
In the case of `CO[C@@H]1[C@@H](OC(N)=O)[C@@H](O)[C@H](Oc2ccc3c(O)c(NC(=O)c4ccc(O)c(CC=C(C)C)c4)c(=O)oc3c2C)OC1(C)C` [Novobiocin, reference compound], the “MIC against M. tuberculosis H37Ra” value is reported as over 100 µg/mL.

Same assay, conditions: Mycobacterium tuberculosis, H37RA, 168 h, read-out: MIC against M. tuberculosis H37Ra
Work on `OC(CNCCC1C=Nc2ccccc21)Cn1c2ccccc2c2ccccc21` (stereo not shown) [Compound 1] yielded an MIC of 6.2 µg/mL (≈ 16.2 µM). `OC(CNCCOc1ccccc1)Cn1c2ccccc2c2ccccc21` (stereo not shown) [Compound 2] showed an MIC of 6.2 µg/mL (≈ 17.2 µM). Molecule `OC(CNCc1ccccc1)Cn1c2ccccc2c2ccccc21` (stereo not shown) [Compound 3] has an MIC of 12.5 µg/mL (≈ 37.8 µM). `Cc1ccc(NCC(O)Cn2c3ccccc3c3ccccc32)cc1Cl` (stereo not shown) [Compound 4] gave an MIC of over 100 µg/mL. Work on `O=C(NNCC(O)Cn1c2ccccc2c2ccccc21)c1ccccc1` (stereo not shown) [Compound 5] yielded an MIC of over 100 µg/mL. In the case of `CCc1ccc(NCC(O)Cn2c3ccccc3c3ccccc32)cc1` (stereo not shown) [Compound 6], the MIC is reported as over 100 µg/mL. Work on `Cc1ccc(NCC(O)Cn2c3ccccc3c3ccccc32)cc1` (stereo not shown) [Compound 7] yielded an MIC of over 100 µg/mL. In the case of `CCn1c2ccccc2c2cc(CNCCNCC(C)O)ccc21` (stereo not shown) [Compound 8], the MIC is reported as 25 µg/mL (≈ 76.8 µM). With `OC(CN1CCOCC1)Cn1c(-c2ccccc2)c(-c2ccccc2)c2ccc3ccccc3c21` (stereo not shown) [Compound 9] the MIC was 12.5 µg/mL (≈ 27 µM). In the case of `OC(CNCc1ccco1)Cn1c(-c2ccccc2)c(-c2ccccc2)c2ccc3ccccc3c21` (stereo not shown) [Compound 10], the MIC is reported as 3.1 µg/mL (≈ 6.56 µM). In the case of `OCCNCC(O)Cn1c(-c2ccccc2)c(-c2ccccc2)c2ccc3ccccc3c21` (stereo not shown) [Compound 11], the MIC is reported as 3.1 µg/mL (≈ 7.1 µM). Molecule `Cc1cc(C)c2c(c1)c(-c1ccccc1)c(-c1ccccc1)n2CC(O)CN1CCOCC1` (stereo not shown) [Compound 12] has an MIC of 12.5 µg/mL (≈ 28.4 µM). With `Cc1ccc2c(c1)c(-c1ccccc1)c(-c1ccccc1)n2CC(O)CN1CCOCC1` (stereo not shown) [Compound 13] the MIC was 12.5 µg/mL (≈ 29.3 µM). `Cc1ccc2c(c1)c(-c1ccccc1)c(-c1ccccc1)n2CC(O)CNC(CO)(CO)CO` (stereo not shown) [Compound 14] showed an MIC of 6.2 µg/mL (≈ 13.5 µM). `Cc1ccc2c(c1)c(-c1ccccc1)c(-c1ccccc1)n2CC(O)CN(CCO)CCO` (stereo not shown) [G24, reference compound] showed an MIC of 12.5 µg/mL (≈ 28.1 µM). In the case of `CO[C@@H]1[C@@H](OC(N)=O)[C@@H](O)[C@H](Oc2ccc3c(O)c(NC(=O)c4ccc(O)c(CC=C(C)C)c4)c(=O)oc3c2C)OC1(C)C` [Novobiocin, reference compound], the MIC is reported as over 100 µg/mL.

Test system: Caco-2 cells
Assay: In vitro cytotoxicity, MTT assay
Assay type: cell-based
Conditions: 24 h, MTT, viability of more than 80% considered nontoxic
Protocol: Caco-2 cells (ATCC no. HTB-37) were used for cytotoxicity testing of selected compounds as described in our previous work.[32] Cell viability of tested compounds on Caco-2 cells was determined using 3-(4,5-dimethylthiazol-2-yl)-2,5-diphenyltetrazolium bromide (MTT) following a modified assay procedure.[52] Absorbance was measured at 590 nm using a microplate reader (Infinite M200 PRO, Tecan Group Ltd., Switzerland). The experiment was performed in triplicate and compound concentrations at which cells retained a viability of more than 80% were considered as nontoxic to cells.[53]
Figure S1. Hit compound cytotoxicity against Caco-2 cells. Cells were incubated with different concentrations of compounds (1 (A), 2 (B), 3 (C), 8 (D), 11 (E), 14 (F), G24 (G), and G26 (H)) for 24 h and viability measured by MTT assay. Data are presented as the mean ± SD (n = 6). The yellow bars represent the maximum concentrations at which compounds are non-cytotoxic towards Caco-2 cells.
(1 picture or pasted object on this page, not shown here)
For `OC(CNCc1ccccc1)Cn1c2ccccc2c2ccccc21` (stereo not shown) [Compound 3], the “maximum non-cytotoxic concentration toward Caco-2 cells” value was 12.5 µg/mL.

Same assay, conditions: human, 24 h
In the case of `Cc1ccc2c(c1)c(-c1ccccc1)c(-c1ccccc1)n2CC(O)CN(CCO)CCO` (stereo not shown) [G24, reference compound], the “maximum non-cytotoxic concentration, fold higher than for G26” value is reported as 15 fold.

Same assay, conditions: human, Caco-2, 24 h
For `OC(CNCCC1C=Nc2ccccc21)Cn1c2ccccc2c2ccccc21` (stereo not shown) [Compound 1], the “maximum non-cytotoxic concentration toward Caco-2 cells” value was 25.0 µg/mL. In the case of `OC(CNCCOc1ccccc1)Cn1c2ccccc2c2ccccc21` (stereo not shown) [Compound 2], the “maximum non-cytotoxic concentration toward Caco-2 cells” value is reported as 12.5 µg/mL. In the case of `CCn1c2ccccc2c2cc(CNCCNCC(C)O)ccc21` (stereo not shown) [Compound 8], the “maximum non-cytotoxic concentration toward Caco-2 cells” value is reported as 12.5 µg/mL. With `OCCNCC(O)Cn1c(-c2ccccc2)c(-c2ccccc2)c2ccc3ccccc3c21` (stereo not shown) [Compound 11] the “maximum non-cytotoxic concentration toward Caco-2 cells” value was 0.87 µg/mL. For `Cc1ccc2c(c1)c(-c1ccccc1)c(-c1ccccc1)n2CC(O)CNC(CO)(CO)CO` (stereo not shown) [Compound 14], the “maximum non-cytotoxic concentration toward Caco-2 cells” value was 12.5 µg/mL. With `Cc1ccc2c(c1)c(-c1ccccc1)c(-c1ccccc1)n2CC(O)CN(CCO)CCO` (stereo not shown) [G24, reference compound] the “maximum non-cytotoxic concentration toward Caco-2 cells” value was 25 µg/mL.

— PMC11323271 (Journal of Chemical Information and Modeling, 2024)
